Experimental data as given in ChEMBL document CHEMBL1649305, “Novel protease inhibitors (PIs) containing macrocyclic components and 3(R),3a(S),6a(R)-bis-tetrahydrofuranylurethane that are potent against multi-PI-resistant HIV-1 variants in vitro” (Antimicrob Agents Chemother, 2010).
The source made the active and inactive calls. No cut-off for these calls is given here.

Columns and labels:
[1] = test system: Human immunodeficiency virus 1; assay: Antiviral activity against HIV1 expressing protease L10F/M46I/T91S mutant infected in human MT4 cells selected at 1 uM of GRL-246 by MTT assay; type: functional, organism-based; settings: Human immunodeficiency virus 1, MT4
[2] = test system: Human immunodeficiency virus 1; assay: Antiviral activity against HIV1 expressing protease L10F/M46I/I54V/V82A mutant infected in human MT4 cells selected at 5 uM of Lopinavir by p24 Gag protein production inhibition assay; settings: Human immunodeficiency virus 1, MT4
[3] = test system: Human immunodeficiency virus 1; assay: Antiviral activity against HIV1 expressing protease L10F/M46I/I50V/A71V/I84V/L90M mutant infected in human MT4 cells selected at 5 uM of amprenavir by p24 Gag protein production inhibition assay; settings: Human immunodeficiency virus 1, MT4
[4] = test system: Human immunodeficiency virus 1; assay: Antiviral activity against HIV1 expressing protease L10F/M46M,I/Q61Q mutant infected in human MT4 cells selected at 1 uM of GRL-396 by MTT assay; type: functional, organism-based; settings: Human immunodeficiency virus 1, MT4
[5] = test system: Human immunodeficiency virus 2; assay: Antiviral activity against HIV2 ROD infected in human MT2 cells by MTT assay; type: functional, organism-based; settings: Human immunodeficiency virus 2, ISOLATE ROD
[6] = test system: Human immunodeficiency virus 1; assay: Antiviral activity against HIV1 expressing protease L23I/E34Q/K43I/M46I/I50L/G51A/L63P/A71V/V82A/T91A mutant infected in human MT4 cells selected at 5 uM of atazanavir by p24 Gag protein production inhibition assay; settings: Human immunodeficiency virus 1, MT4
[7] = test system: Human immunodeficiency virus 1; assay: Antiviral activity against multidrug-resistant HIV1 isolate C containing protease L10I, I15V, K20R, L24I, M36I, M46L, I54V, I62V, L63P, K70Q, V82A, and L89M mutant infected in human PHA-PBMC cells by p24 Gag protein production inhibition assay; settings: Human immunodeficiency virus 1, isolate C
[8] = test system: Human immunodeficiency virus 1; assay: Antiviral activity against HIV1 expressing protease L10I/G48V/I54V/A71V/I84V/L90M mutant infected in human MT4 cells selected at 5 uM of saquinavir by p24 Gag protein production inhibition assay; settings: Human immunodeficiency virus 1, MT4
[9] = test system: Human immunodeficiency virus 1; assay: Antiviral activity against HIV1 expressing protease L10F/D30N/K45I/A71V/T74S mutant infected in human MT4 cells selected at 5 uM of nelfinavir by MTT assay; type: functional, organism-based; settings: Human immunodeficiency virus 1, MT4
[10] = test system: Human immunodeficiency virus 1; assay: Antiviral activity against wild type HIV1 ERS104 containing protease L63P mutant infected in human PHA-PBMC cells by p24 Gag protein production inhibition assay; settings: Human immunodeficiency virus 1, ERS104, PBMC
[11] = test system: Human immunodeficiency virus 1; assay: Antiviral activity against wild type HIV1 NL4-3 infected in human MT4 cells by p24 Gag protein production inhibition assay; settings: Human immunodeficiency virus 1, NL4-3, MT4
[12] = test system: Human immunodeficiency virus 1; assay: Antiviral activity against multidrug-resistant HIV1 isolate TM containing L10I, K14R, R41K, M46L, I54V, L63P, A71V, V82A, L90M, and I93L mutant infected in human PHA-PBMC cells by p24 Gag protein production inhibition assay; settings: Human immunodeficiency virus 1, isolate TM
[13] = test system: Human immunodeficiency virus 1; assay: Antiviral activity against multidrug-resistant HIV1 isolate G containing L10I, V11I, T12E, I15V, L19I,R41K, M46L, L63P, A71T, V82A, and L90M mutant infected in human PHA-PBMC cells by p24 Gag protein production inhibition assay; settings: Human immunodeficiency virus 1, isolate G
[14] = test system: Human immunodeficiency virus 1; assay: Antiviral activity against multidrug-resistant HIV1 isolate B containing protease L10I, K14R, L33I, M36I,M46I, F53I, K55R, I62V, L63P, A71V, G73S, V82A, L90M, and I93L mutant infected in human PHA-PBMC cells by p24 Gag protein production inhibition assay; settings: Human immunodeficiency virus 1, isolate B
[15] = test system: Human immunodeficiency virus 1; assay: Antiviral activity against multidrug-resistant HIV1 isolate JSL containing L10I, L24I, I33F, E35D, M36I, N37S, M46L, I54V, R57K, I62V, L63P, A71V, G73S, and V82A mutant infected in human PHA-PBMC cells by p24 Gag protein production inhibition assay; settings: Human immunodeficiency virus 1, isolate JSL
[16] = test system: Human immunodeficiency virus 1; assay: Antiviral activity against multidrug-resistant HIV1 isolate MM containing L10I, K43T, M46L, I54V, L63P, A71V, V82A, L90M, and Q92K mutant infected in human PHA-PBMC cells by p24 Gag protein production inhibition assay; settings: Human immunodeficiency virus 1, isolate MM
[17] = Cytotoxicity against human MT2 cells after 7 days by MTT assay; type: cell-based
[18] = test system: Human immunodeficiency virus 1; assay: Antiviral activity against HIV1 LAI infected in human MT2 cells by MTT assay; type: functional, organism-based; settings: Human immunodeficiency virus 1, LAI
[19] = test system: Human immunodeficiency virus 1; assay: Antiviral activity against HIV1 expressing protease L10I/L24I/M46I/V82I/I84V mutant infected in human MT4 cells selected after 50 passages of GRL-216 by MTT assay; type: functional, organism-based; settings: Human immunodeficiency virus 1, MT4
[20] = test system: Human immunodeficiency virus 1; assay: Antiviral activity against HIV1 expressing protease L10F/M46L/I50V/A71Vmutant infected in human MT4 cells selected at 1 uM of GRL-286 by MTT assay; type: functional, organism-based; settings: Human immunodeficiency virus 1, MT4
[21] = test system: Human immunodeficiency virus 2; assay: Antiviral activity against HIV2 EHO infected in human MT2 cells by MTT assay; type: functional, organism-based; settings: Human immunodeficiency virus 2, EHO
[22] = Selectivity ratio of CC50 for human MT2 cells to EC50 for HIV1 LAI infected human MT2 cells; type: ADME, cell-based; settings: MT2 cells (CC50) and HIV1 LAI infected MT2 cells (EC50)
[23] = test system: Human immunodeficiency virus 1; assay: Antiviral activity against HIV1 NL4-3 infected in human MT4 cells at 1 uM after 37 passages by MTT assay; type: functional, organism-based
[24] = test system: Human immunodeficiency virus 1; assay: Antiviral activity against HIV1 NL4-3 infected in human MT4 cells after 50 passages by MTT assay; type: functional, organism-based
[25] = test system: Human immunodeficiency virus 1; assay: Antiviral activity against HIV1 NL4-3 infected in human MT4 cells at 1 uM after 20 passages by MTT assay; type: functional, organism-based
[26] = test system: Human immunodeficiency virus 1; assay: Antiviral activity against HIV1 NL4-3 infected in human MT4 cells at 1 uM after 33 passages by MTT assay; type: functional, organism-based

Row | SMILES | EC50 [1] [nM] | EC50 [2] [nM] | EC50 [3] [nM] | EC50 [4] [nM] | EC50 [5] [nM] | EC50 [6] [nM] | EC50 [7] [nM] | EC50 [8] [nM] | EC50 [9] [nM] | EC50 [10] [nM] | EC50 [11] [nM] | EC50 [12] [nM] | EC50 [13] [nM] | EC50 [14] [nM] | EC50 [15] [nM] | EC50 [16] [nM] | CC50 at 168 h [17] [nM] | EC50 [18] [nM] | EC50 [19] [nM] | EC50 [20] [nM] | other results
1 | CC(C)CN(C[C@@H](O)[C@H](Cc1ccccc1)NC(=O)O[C@H]1CO[C@H]2OCC[C@H]21)S(=O)(=O)c1ccc(N)cc1 | 29 | 25 | 290 | 16 | 10 | – | – | – | – | – | – | – | – | – | – | – | – | – | – | – | –
2 | CC(C)(C)NC(=O)[C@@H]1C[C@@H]2CCCC[C@@H]2CN1C[C@@H](O)[C@H](Cc1ccccc1)NC(=O)[C@H](CC(N)=O)NC(=O)c1ccc2ccccc2n1 | – | 28 | 26 | – | – | 31 | 32 | > 1000 | 3 | 8 | 5 | 260 | 30 | 270 | 300 | 190 | – | – | – | – | –
3 | CCC[C@@]1(CCc2ccccc2)CC(O)=C([C@H](CC)c2cccc(NS(=O)(=O)c3ccc(C(F)(F)F)cn3)c2)C(=O)O1 | 95 | 310 | 220 | 42 | 330 | 410 | 380 | 22 | 39 | 120 | 320 | 380 | 240 | 180 | 230 | 350 | 54100 | 170 | 29 | 37 | EC50 [21]: 300 nM; selectivity ratio [22]: 320
4 | COc1ccc2c(c1)OCCCCCCCCN(C[C@@H](O)[C@H](Cc1ccccc1)NC(=O)O[C@H]1CO[C@H]3OCC[C@H]31)S2(=O)=O | 420 | – | – | 370 | – | – | – | – | – | – | – | – | – | – | – | – | 33300 | 22 | 260 | > 1000 | Activity [23]: inactive; Activity [24]: inactive; Activity [25]: inactive; Activity [26]: inactive
5 | COC(=O)N[C@H](C(=O)N[C@@H](Cc1ccccc1)[C@@H](O)CN(Cc1ccc(-c2ccccn2)cc1)NC(=O)[C@@H](NC(=O)OC)C(C)(C)C)C(C)(C)C [ATAZANAVIR] | 32 | 36 | 6 | 24 | – | > 1000 | 65 | 210 | 27 | 2 | 4 | 65 | 33 | 200 | 430 | 180 | – | – | 14 | – | –
6 | Cc1cccc(C)c1OCC(=O)N[C@@H](Cc1ccccc1)[C@@H](O)C[C@H](Cc1ccccc1)NC(=O)[C@H](C(C)C)N1CCCNC1=O [LOPINAVIR] | 330 | > 1000 | > 1000 | 280 | 28 | > 1000 | > 1000 | 120 | 37 | 34 | 46 | > 1000 | – | > 1000 | > 1000 | > 1000 | > 100000 | 39 | 190 | > 1000 | EC50 [21]: 35 nM
7 | CC(C)(C)NC(=O)[C@@H]1CN(Cc2cccnc2)CCN1C[C@@H](O)C[C@@H](Cc1ccccc1)C(=O)N[C@H]1c2ccccc2C[C@H]1O | – | – | – | – | – | – | > 1000 | – | – | 43 | – | > 1000 | 340 | > 1000 | > 1000 | > 1000 | – | – | – | – | –
8 | Cc1c(O)cccc1C(=O)N[C@@H](CSc1ccccc1)[C@H](O)CN1C[C@H]2CCCC[C@H]2C[C@H]1C(=O)NC(C)(C)C | 290 | 320 | 300 | 220 | – | > 1000 | – | 510 | > 1000 | – | – | – | – | – | – | – | – | – | 130 | – | –
